The source of these data is US12624044B2, “SMARCA degraders and uses thereof” (Kymera Therapeutics, Inc., priority 2019, dated 2026).

What all share (type): cell-based
The target in one assay is T1, SMARCA4 (Homo sapiens, UniProt P51532).
T1 construct: SMARCA2 and SMARCA4 protein degradation in MV4-11 cells; endogenous in cells; host or cells: MV4-11
Briefly: SMARCA4 Western blot MV4-11 degradation. Particulars: for DC50 / Dmax: 24 h; for DC50: read-out: SMARCA4 WB MV411 degradation 24 h: Average external-Abs DC50; for Dmax: MV4-11, MV4-11 cells, read-out: SMARCA4 WB MV411 degradation 24 h: Average Dmax %. Summed up: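 MV4-11 cells treated with compound for 24 h, lysed in RIPA with protease/phosphatase inhibitors, and SMARCA2 and SMARCA4 (BRG1) levels assessed by Western blot with β-actin loading control and LI-COR fluorescent read-out. Maximal degradation (Dmax %) after 24 h binned into letter codes.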
A general note: Immunoblotting shows a protein as a band on a membrane.

Assay [1] deals with T2, SMARCA2 (Homo sapiens, UniProt P51531). Briefly: MSD SMARCA2 degradation in A549 cell line. Particulars: 24 h; for DC50: A549 cells, read-out: SMARCA2 MSD A549 degradation 24 h: Average external-Abs DC50; for Dmax: A549, A549 cells. Summed up: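 A549 cells treated 24 h with compound at final 0.152-1000 nM (3-fold series, DMSO control). Lysates analyzed by MSD immunoassay using anti-SMARCA2/BRM detection and SULFO-TAG secondary antibodies; maximal degradation (Dmax %) reported as letter bins.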

The target in assay [2] is T2, SMARCA2. The experiment in a line: SMARCA2 Western blot MV4-11 degradation. Conditions: 24 h; for DC50: MV4-11 cells, read-out: SMARCA2 WB MV411 degradation 24 h: Average external-Abs DC50. The protocol: Cells were seeded into 6-well plates (MV4-11: 4×10^6 cells/well/1 ml) and 1 ml of 2× compound solution was added into the well to make the final concentration and the plates were mixed well and incubated for 24 hours (No cytotoxicity was observed). The cell were collected with media and spun at 3000 rpm for 5 minutes. The supernatant was aspirated and the well and the cells were washed with cold PBS once and combined for centrifugation again; the supernatant aspirated again. 200 ul pre-chilled RIPAlysis buffer (Boston BioProducts BP-115D) with protease/phosphatase inhibitor (Roche 05892791001/Roche 04906837001) was directly added into the tube to lyze the cells for 20 minutes on ice. The cell lysate were collected into EP tubes and spun at 13000 rpm for 20 minutes and 72 ul supernatant was transferred to a fresh EP tube containing 18 ul of 5× loading buffer (Beyotime Bio P0015) to make the loading samples. The samples were heated to 100° C. for 10 minutes and cooled to RT and microcentrifuged. 20 ul of samples were loaded onto SDS-PAGE gel (Novex, WG1402BOX) and the gel was run at 80 V for 20 minutes and 120 V for 1.5 hours. The samples were electrotransfer to a NC membrane using wet-transfer method with 250 mA for 2.5 hours. The membrane was blocked with LICOR blocking buffer (LI-COR, 927-50000) for 1 hour. The membrane was washed three times with TBST (CST #9997S), 5 minutes each. Incubation was performed with primary antibody prepared in blocking buffer with 0.1% Tween-20 (Solarbio, P8220) at 4° C. overnight (Anti-SMARCA2/BRM antibody (ab15597) 1:500; Anti-BRG1 antibody [EPR3912] (ab108318) 1:1000; Rabbit anti-Baf180 antibody [EPR15860] (Abcam, ab196022) 1:1000; mouse anti-beta-Actin (8H10D10) (CST #3700) 1:10000). The membrane was washed three times with TBST, 5 minutes each. Incubation with secondary antibody was performed for 1 hour at RT (anti-rabbit IgG (Licor, 926-32211) 1:5000; anti-mouse IgG (LI-COR, 926-68070) 1:5000). The membrane was washed three times with TBST, 5 minutes each and lastly the LiCOR was read.
The letter codes for the percentage of SMARCA degradation after 24 hours (Dmax %) include: A (>90% degradation), B (>70-90% degradation), C (50-70% degradation), and D (<50% degradation).

The target of assay [3] is T2, SMARCA2. The experiment in a line: MSD SMARCA2 degradation in NCI-H1299 cell line (24 h). Further details: HC: NCI-H1299 cells treated with DMSO; host or cells: NCI-H1299. Particulars: for Dmax: NCI-H1299, NCI-H1299 cells; for DC50: NCI-H1299 cells, read-out: SMARCA2 MSD H1299 degradation 24 h: External Abs-DC50. Summed up:
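NCI-H1299 cells treated 24 h with a 3-fold, 9-point compound dilution series, then lysed in RIPA with protease inhibitor. SMARCA2 in lysate-coated MSD plates detected with rabbit anti-SMARCA2 (0.3 ug/ml) and SULFO-TAG secondary. Relative SMARCA2 level normalized between DMSO-treated H1299 cells and SMARCA2-negative A2780 cells; Dmax % binned A–D.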

T1 sequence (P51532 whole entry): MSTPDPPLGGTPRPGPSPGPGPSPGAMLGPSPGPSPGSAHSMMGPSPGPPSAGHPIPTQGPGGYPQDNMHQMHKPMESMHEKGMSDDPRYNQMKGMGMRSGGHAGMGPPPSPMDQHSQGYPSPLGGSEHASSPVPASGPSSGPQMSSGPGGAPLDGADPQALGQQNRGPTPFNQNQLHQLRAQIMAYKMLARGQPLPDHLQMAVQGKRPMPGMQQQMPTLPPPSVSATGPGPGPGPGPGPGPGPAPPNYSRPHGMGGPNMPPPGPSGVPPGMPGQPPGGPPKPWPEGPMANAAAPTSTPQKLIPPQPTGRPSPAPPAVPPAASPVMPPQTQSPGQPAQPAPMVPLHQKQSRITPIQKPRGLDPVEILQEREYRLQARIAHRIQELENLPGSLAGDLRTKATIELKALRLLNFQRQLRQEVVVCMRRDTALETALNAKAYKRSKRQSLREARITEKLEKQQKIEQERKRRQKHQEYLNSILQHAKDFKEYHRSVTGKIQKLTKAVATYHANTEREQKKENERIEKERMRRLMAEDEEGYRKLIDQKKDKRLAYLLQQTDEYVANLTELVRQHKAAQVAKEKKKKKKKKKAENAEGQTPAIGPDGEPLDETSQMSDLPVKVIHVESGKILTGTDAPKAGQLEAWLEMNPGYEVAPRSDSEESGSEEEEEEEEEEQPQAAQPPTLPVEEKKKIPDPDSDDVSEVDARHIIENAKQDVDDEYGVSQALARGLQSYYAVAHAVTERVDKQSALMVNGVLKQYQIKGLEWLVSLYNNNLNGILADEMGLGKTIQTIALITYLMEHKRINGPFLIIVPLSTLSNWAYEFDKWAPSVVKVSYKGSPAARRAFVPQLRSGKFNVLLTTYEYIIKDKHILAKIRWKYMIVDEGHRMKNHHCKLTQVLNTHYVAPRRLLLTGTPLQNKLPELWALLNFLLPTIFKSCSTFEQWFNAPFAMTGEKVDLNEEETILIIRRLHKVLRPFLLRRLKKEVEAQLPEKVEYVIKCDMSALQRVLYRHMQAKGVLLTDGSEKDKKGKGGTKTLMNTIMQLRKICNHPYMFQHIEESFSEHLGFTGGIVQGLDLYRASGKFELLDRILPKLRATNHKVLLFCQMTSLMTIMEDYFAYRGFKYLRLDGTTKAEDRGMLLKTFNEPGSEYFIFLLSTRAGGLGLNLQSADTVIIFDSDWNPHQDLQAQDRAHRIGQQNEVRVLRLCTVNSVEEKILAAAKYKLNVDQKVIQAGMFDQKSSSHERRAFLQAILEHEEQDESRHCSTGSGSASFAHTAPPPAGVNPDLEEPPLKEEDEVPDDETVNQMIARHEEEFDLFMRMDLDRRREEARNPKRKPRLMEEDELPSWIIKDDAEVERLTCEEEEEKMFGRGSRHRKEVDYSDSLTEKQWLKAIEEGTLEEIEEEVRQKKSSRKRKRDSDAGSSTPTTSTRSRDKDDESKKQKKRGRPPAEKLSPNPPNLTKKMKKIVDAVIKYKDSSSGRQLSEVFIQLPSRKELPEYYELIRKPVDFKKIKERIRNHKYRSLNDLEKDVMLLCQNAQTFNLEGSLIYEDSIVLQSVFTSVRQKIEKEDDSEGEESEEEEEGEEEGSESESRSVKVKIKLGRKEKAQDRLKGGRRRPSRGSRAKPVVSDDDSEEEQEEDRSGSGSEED
T2 sequence (P51531 whole entry): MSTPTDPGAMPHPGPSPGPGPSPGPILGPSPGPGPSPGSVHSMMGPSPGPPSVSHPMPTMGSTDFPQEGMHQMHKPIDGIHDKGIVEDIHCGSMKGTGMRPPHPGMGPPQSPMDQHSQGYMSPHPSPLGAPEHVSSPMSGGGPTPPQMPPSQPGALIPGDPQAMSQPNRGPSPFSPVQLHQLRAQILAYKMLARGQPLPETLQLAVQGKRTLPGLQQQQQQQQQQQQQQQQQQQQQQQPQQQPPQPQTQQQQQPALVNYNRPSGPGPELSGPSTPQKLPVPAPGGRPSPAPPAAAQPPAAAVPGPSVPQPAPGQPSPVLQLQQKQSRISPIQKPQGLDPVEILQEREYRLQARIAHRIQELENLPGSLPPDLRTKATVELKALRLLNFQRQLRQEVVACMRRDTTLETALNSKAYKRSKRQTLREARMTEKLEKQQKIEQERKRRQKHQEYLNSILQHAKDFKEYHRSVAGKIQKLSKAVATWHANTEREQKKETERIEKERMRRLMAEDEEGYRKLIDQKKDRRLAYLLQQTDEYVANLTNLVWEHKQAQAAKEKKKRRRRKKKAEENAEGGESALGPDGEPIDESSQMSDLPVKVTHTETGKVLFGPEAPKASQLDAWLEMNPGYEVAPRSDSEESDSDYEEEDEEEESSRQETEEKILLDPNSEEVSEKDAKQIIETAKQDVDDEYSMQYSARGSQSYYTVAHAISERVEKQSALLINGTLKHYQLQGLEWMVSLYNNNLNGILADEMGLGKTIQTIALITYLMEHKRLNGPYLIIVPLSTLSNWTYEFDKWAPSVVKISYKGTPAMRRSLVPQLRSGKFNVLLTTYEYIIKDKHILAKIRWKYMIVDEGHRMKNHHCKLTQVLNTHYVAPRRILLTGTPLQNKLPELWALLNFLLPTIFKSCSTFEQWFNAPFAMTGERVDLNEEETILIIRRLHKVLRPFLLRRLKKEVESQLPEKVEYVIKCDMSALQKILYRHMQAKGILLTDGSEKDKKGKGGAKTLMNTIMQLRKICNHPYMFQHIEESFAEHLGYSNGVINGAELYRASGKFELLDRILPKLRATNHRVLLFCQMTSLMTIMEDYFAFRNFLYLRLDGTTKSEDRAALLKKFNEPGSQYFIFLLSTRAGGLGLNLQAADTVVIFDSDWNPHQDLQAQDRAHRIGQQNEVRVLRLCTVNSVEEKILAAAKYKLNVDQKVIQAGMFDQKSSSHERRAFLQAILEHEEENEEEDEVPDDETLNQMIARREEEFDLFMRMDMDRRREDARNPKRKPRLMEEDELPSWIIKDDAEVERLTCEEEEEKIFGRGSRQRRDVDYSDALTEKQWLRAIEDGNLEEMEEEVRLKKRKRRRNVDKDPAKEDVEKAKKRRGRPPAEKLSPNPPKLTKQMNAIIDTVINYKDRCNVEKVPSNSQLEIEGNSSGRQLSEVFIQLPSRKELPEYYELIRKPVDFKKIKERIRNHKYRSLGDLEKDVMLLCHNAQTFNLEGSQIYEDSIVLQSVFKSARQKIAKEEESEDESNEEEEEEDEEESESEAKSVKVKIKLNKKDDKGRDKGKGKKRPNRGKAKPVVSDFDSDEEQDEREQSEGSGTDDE

For the compound `Cc1ncsc1-c1ccc(CNC(=O)[C@@H]2C[C@@H](O)CN2C(=O)[C@@H](NC(=O)C2CCC(c3cnc(N4C5CCC4CN(c4cc(-c6ccccc6O)nnc4N)C5)nc3)CC2C)C(C)(C)C)cc1` (stereo partly shown) [I-444], the DC50 on SMARCA4 (MV4-11 cells) is less than 100 nM; on SMARCA2 [1] it was 501 to 1000 nM; at SMARCA2 [2], less than 100 nM.
With `Cc1ncsc1-c1ccc(CNC(=O)[C@@H]2C[C@@H](O)CN2C(=O)[C@@H](NC(=O)[C@H]2CC3(C2)C[C@H](c2ccc(CN4CCC(Cn5cc(-c6cc(-c7ccccc7O)nnc6N)cn5)CC4)cc2)C3)C(C)(C)C)cc1` (stereo partly shown) [I-433], the “SMARCA4 WB MV411 degradation 24 h: Average Dmax %” value at SMARCA4 (MV4-11 cells) is reported as “C (C (50-70% degradation))”. The DC50 on SMARCA4 (MV4-11 cells), at SMARCA2 [1] and at SMARCA2 [2] was less than 100 nM each time. The Dmax on SMARCA2 [1] is greater than 90%; on SMARCA2 [2] (MV4-11, MV4-11 cells, read-out: SMARCA2 WB MV411 degradation 24 h: Average Dmax %), greater than 90%.
`Cc1ncsc1-c1ccc(CNC(=O)[C@@H]2C[C@@H](O)CN2C(=O)[C@@H](NC(=O)CN(C)Cc2ccc(N3CCN(c4cc(-c5ccccc5O)nnc4N)CC3)cc2)C(C)(C)C)cc1` [I-462]: the figures for the Dmax at SMARCA2 [3], on SMARCA4 and at SMARCA2 [1] were 70 to 90%, less than 50% and 70 to 90%, respectively. Moreover, the DC50 on SMARCA2 [3] was 501 to 1000 nM; on SMARCA4 (MV4-11 cells), greater than 1000 nM; at SMARCA2 [1] it was 501 to 1000 nM.
On to `Cc1ncsc1-c1ccc(CNC(=O)[C@@H]2C[C@@H](O)CN2C(=O)[C@@H](NC(=O)CN(C)CC#Cc2cnc(N3C4CCC3CN(c3cc(-c5ccccc5O)nnc3N)C4)nc2)C(C)(C)C)cc1` [I-495], for which the Dmax at SMARCA2 [3] was 70 to 90%; on SMARCA4 it was greater than 90%; at SMARCA2 [1], 70 to 90%. Moreover, the DC50 was 100 to 500 nM on SMARCA2 [3], less than 100 nM at SMARCA4 (MV4-11 cells) and 100 to 500 nM at SMARCA2 [1].
For the compound `Cn1c(=O)n(C2CCC(=O)NC2=O)c2ccc(CCCN3CCN(c4cnc(N5C6CCC5CN(c5cc(-c7ccccc7O)nnc5N)C6)nc4)CC3)cc21` (stereo not shown) [I-285], the Dmax at SMARCA2 [3], on SMARCA4 and on SMARCA2 [1] was greater than 90% throughout. Further, the DC50 on SMARCA2 [3], on SMARCA4 (MV4-11 cells) and on SMARCA2 [1] was less than 100 nM each time.
In the case of `CC(C)(C)[C@H](NC(=O)[C@H]1CC2(C1)C[C@H](N1CCC(c3cnc(N4C5CCC4CN(c4cc(-c6ccccc6O)nnc4N)C5)nc3)CC1)C2)C(=O)N1C[C@H](O)C[C@H]1C(=O)NOc1ccc(-c2ccccc2F)cc1` (stereo partly drawn) [I-537, (2S,4R)-1-[(2S)-2-[[2-[4-[2-[3-[3-amino-6-(2-hydroxyphenyl)pyridazin-4-yl]-3,8-diazabicyclo[3.2.1]octan-8-yl]pyrimidin-5-yl]-1-piperidyl]spiro[3.3]heptane-6-carbonyl]amino]-3,3-dimethyl-butanoyl]-N-[4-(2-fluorophenyl)phenoxy]-4-hydroxy-pyrrolidine-2-carboxamide], the DC50 on SMARCA2 [1] and at SMARCA2 [2] was greater than 1000 nM throughout.
With `NCC#Cc1nccc(N2C3CCC2CN(c2cc(-c4ccccc4O)nnc2N)C3)n1` [I-534, 2-[6-amino-5-[8-[2-(3-aminoprop-1-ynyl)pyrimidin-4-yl]-3,8-diazabicyclo[3.2.1]octan-3-yl]pyridazin-3-yl]phenol], the Dmax on SMARCA2 [3] was greater than 90%; on SMARCA4 it was 70 to 90%; on SMARCA2 [1], less than 50%. The DC50 at SMARCA2 [3] is 100 to 500 nM; on SMARCA4 (MV4-11 cells), greater than 1000 nM; at SMARCA2 [1], greater than 1000 nM.
With `Cc1ncsc1-c1ccc(CNC(=O)[C@@H]2C[C@@H](O)CN2C(=O)[C@@H](NC(=O)N2CCC(c3cnc(N4C5CCC4CN(c4cc(-c6ccccc6O)nnc4N)C5)nc3)CC2)C(C)(C)C)cc1` [I-448], the Dmax on SMARCA2 [3] was 70 to 90%; at SMARCA4 it was greater than 90%; at SMARCA2 [1], greater than 90%. The DC50 on SMARCA2 [3] is 100 to 500 nM; at SMARCA4 (MV4-11 cells) it was less than 100 nM; at SMARCA2 [1], 100 to 500 nM.
Turning to `Cc1ncsc1-c1ccc(CNC(=O)[C@@H]2C[C@@H](O)CN2C(=O)[C@@H](NC(=O)CCN2CCC(c3cnc(N4C5CCC4CN(c4cc(-c6ccccc6O)nnc4N)C5)nc3)CC2)C(C)(C)C)cc1` [I-449], the maximal degradation (Dmax) at SMARCA2 [3], on SMARCA4 and at SMARCA2 [1] was less than 50% in each case. Also, the DC50 was 100 to 500 nM at SMARCA2 [3], 100 to 500 nM on SMARCA4 (MV4-11 cells) and greater than 1000 nM at SMARCA2 [1].
In the case of `Cn1c(=O)n(C2CCC(=O)NC2=O)c2ccc(C3CCC(N4CCC(c5cnc(N6C7CCC6CN(c6cc(-c8ccccc8O)nnc6N)C7)nc5)CC4)CC3)cc21` (stereo not shown) [I-290], the Dmax on SMARCA2 [3], at SMARCA4 and on SMARCA2 [1] was greater than 90% each time. For the same compound, the DC50 at SMARCA2 [3], at SMARCA4 (MV4-11 cells) and on SMARCA2 [1] was less than 100 nM in each case.
For the compound `Cc1ncsc1-c1ccc(CNC(=O)[C@@H]2C[C@@H](O)CN2C(=O)[C@@H](NC(=O)C2(F)CC2)C2CCC(N(C)CCCc3cnc(N4C5CCC4CN(c4cc(-c6ccccc6O)nnc4N)C5)nc3)CC2)cc1` (stereo partly shown) [I-518], the Dmax was 50 to 70% on SMARCA4 and less than 50% at SMARCA2 [1]. The figures for the DC50 at SMARCA4 (MV4-11 cells) and on SMARCA2 [1] were 100 to 500 nM and greater than 1000 nM, respectively.
In the case of `Cc1ncsc1-c1ccc(CNC(=O)[C@@H]2C[C@@H](O)CN2C(=O)[C@@H](NC(=O)C2CCN(Cc3cnc(N4C5CCC4CN(c4cc(-c6ccccc6O)nnc4N)C5)nc3)CC2)C(C)(C)C)cc1` [I-384], the DC50 was less than 100 nM on SMARCA4 (MV4-11 cells) and 100 to 500 nM on SMARCA2 [1].
In the case of `Cc1ncsc1-c1ccc(CNC(=O)[C@@H]2C[C@@H](N)CN2C(=O)[C@@H](NC(=O)CCCNCc2ccc(C#Cc3cc(NC(=O)Nc4cc(F)ncc4CO)ccn3)cc2)C(C)(C)C)cc1` [I-492], the Dmax on SMARCA4 and on SMARCA2 [1] was less than 50% each time. In addition, the DC50 on SMARCA4 (MV4-11 cells) and at SMARCA2 [1] was greater than 1000 nM each time.
As for `Cn1c(=O)n(C2CCC(=O)NC2=O)c2ccc(C3CC4(C3)CC(N3CCC(c5cnc(N6C7CCC6CN(c6cc(-c8ccccc8O)nnc6N)C7)nc5)CC3)C4)cc21` (single isomer, unassigned) [I-536 (P3), 3-(5-(6-(4-(2-(3-(3-amino-6-(2-hydroxyphenyl)pyridazin-4-yl)-3,8-diazabicyclo[3.2.1]octan-8-yl)pyrimidin-5-yl)piperidin-1-yl)spiro[3.3]heptan-2-yl)-3-methyl-2-oxo-2,3-dihydro-1H-benzo[d]imidazol-1-yl)piperidine-2,6-dione], the DC50 on SMARCA4 (MV4-11 cells) and on SMARCA2 [1] was less than 100 nM throughout.
On to `Cc1ncsc1-c1ccc(CNC(=O)[C@@H]2C[C@@H](O)CN2C(=O)[C@@H](NC(=O)CC2CCC(c3cnc(N4C5CCC4CN(c4cc(-c6ccccc6O)nnc4N)C5)nc3)CC2)C(C)(C)C)cc1` (stereo partly shown) [I-502], for which the Dmax at SMARCA4 and on SMARCA2 [1] was greater than 90% in each case. Further, the DC50 at SMARCA4 (MV4-11 cells) and at SMARCA2 [1] was less than 100 nM each time.
As for `Cc1ncsc1-c1ccc(CNC(=O)[C@@H]2C[C@@H](O)CN2C(=O)[C@@H](NC(=O)Cc2ccc(-c3ccc(N4CCC(Cn5cc(-c6cc(-c7ccccc7O)nnc6N)cn5)CC4)cc3)cc2)C(C)(C)C)cc1` [I-508], the Dmax at SMARCA4 and on SMARCA2 [1] was less than 50% throughout. For the same compound, the DC50 at SMARCA4 (MV4-11 cells) and at SMARCA2 [1] was greater than 1000 nM each time.

Broadly, the DC50 is the concentration giving 50% degradation. In general, Dmax refers to the greatest extent of degradation seen.
